Data published in US7786097B2, “Tricyclic compounds, compositions and methods” (Pfizer Inc., priority 2007, dated 2010).

Key:
[1] = test system: IL-6 levels in Human A549 lung epithelial cells; experiment: IL-1β-stimulated IL-6 in A549 cells; format: cell-based; settings: additional results (footnote a)
Experimental: IL-6 IC50 and % Inhibition
Human A549 lung epithelial cells (American Type Culture Collection, Rockville, Md.) were cultured in Kaighn's F-12K medium with penicillin-streptomycin (10 U/mL) and 10% heat-inactivated fetal bovine serum (all from Invitrogen, Grand Island, N.Y.). A549 cells were plated at a density of 30,000 cells/well in 96-well plates and incubated overnight at 37° C. and with 5% CO2. The cells were serum-starved by replacing the growth medium with serum-free Kaighn's F-12K medium with penicillin-streptomycin (10 U/mL) and, again, incubating overnight at 37° C. and with 5% CO2. On the third day, the medium was replaced with fresh serum-free medium and the cells were incubated with or without compound (vehicle was DMSO at 0.1% maximum concentration) for approximately 1 hour and then stimulated with 1 ng/mL recombinant human IL-1β (R&D Systems, Minneapolis, Minn.) for 20 hours at 37° C. and with 5% CO2. Cell supernatants were collected for determination of IL-6 levels using MSD (Meso Scale Discovery, Gaithersburg, Md.) 96-well Single Spot plates as per the manufacturer's instructions. Plates were read with an MSD Sector Imager 6000. […] Vehicle was used to define the 0% inhibition control. Percent inhibition for each compound concentration, relative to these controls, was calculated using Excel (Microsoft, Redmond, Wash.). […]

[2] = test system: Mouse Collagen-Induced Arthritis (mCIA); experiment: Therapeutic mouse collagen-induced arthritis (mCIA) model; format: in vivo, Male DBA/J mice; settings: mice, dosing day 34 through day 49
Description: Mouse Collagen-induced arthritis is a commonly used chronic, preclinical model of rheumatoid arthritis in which joint swelling and bone destruction occur following immunization with type II collagen. Reduction of disease incidence and severity has been shown previously to be predictive of disease-modification and signs and symptoms mitigation, respectively, in a clinical setting.
In the therapeutic mCIA model, induction of disease incidence and severity was synchronized via LPS stimulation. Male DBA/J mice were immunized with 100 ug of bovine type II collagen (bCII) on day 0. All mice received an intraperitoneal injection of 20 μg of LPS on day 28 and disease was allowed to develop through day 34. At day 34, all mice had disease (incidence=100%) with an average severity score of seven. Dosing of compounds was initiated in the therapeutic mode on day 34 and continued through day 49. Different treatments were compared by measuring the decrease in incidence (i.e., resolution of disease) and the decrease in severity of paw swelling over time.

## C[C@]12C=CC(=O)C=C1CC[C@@H]1[C@@H]2[C@@H](O)C[C@@]2(C)[C@H]1CC[C@]2(O)C(=O)CO [Prednisolone]
[1]
  IL-6 % Inhibition: 100%
[2]
  Therapeutic mCIA (ED80 dose): 5.5 mg/kg
